In publication PMC6979384, “Characterization of the plant homeodomain (PHD) reader family for their histone tail interactions” (Epigenetics & Chromatin, 2020):

How the values were obtained:
Assay in all cases: Histone peptide microarray
Format in all cases: binding, human
[1] = tested on: KDM5B (3); conditions: GST-tagged KDM5B (3); histone peptide array; arrays performed twice, n of 4
Procedure, shortened: (§1)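 Mean ± SD of 4 replicate array intensities; GST-PHD finger at 0.5 μM against 293 PTM-bearing histone peptides.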

[2] = tested on: ING3; conditions: GST-tagged ING3; histone peptide array; arrays performed twice, n of 4
Procedure, shortened: as §1

[3] = tested on: TAF3; conditions: GST-tagged TAF3; histone peptide array; arrays performed twice, n of 4
Procedure, shortened: as §1

[4] = tested on: KDM5A (3); conditions: GST-tagged KDM5A (3); histone peptide array; arrays performed twice, n of 4
Procedure, shortened: as §1

[5] = tested on: DIDO1; conditions: GST-tagged DIDO1; histone peptide array; arrays performed twice, n of 4
Procedure, shortened: as §1

[6] = tested on: ING4; conditions: GST-tagged ING4; histone peptide array; arrays performed twice, n of 4
Procedure, shortened: as §1

[7] = tested on: DPF2 (PPC2W2); conditions: GST-tagged DPF2 (PPC2W2 = Dual PHD + C2W2-type Zn-finger); histone peptide array; arrays performed twice, n of 4
Procedure, shortened: as §1

[8] = tested on: MORC3 (CW); conditions: GST-tagged MORC3 (CW = CW-type Zn-finger); histone peptide array; arrays performed twice, n of 4
Procedure, shortened: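 GST-tagged PHD finger readers were expressed, purified and applied at 0.5 μM to a microarray of 293 synthetic histone peptides carrying single or combinatorial PTMs, using an optimized protocol. Binding signals are averages with standard deviation from 4 replicates.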

[9] = tested on: SP140L; conditions: GST-tagged SP140L; histone peptide array; arrays performed twice, n of 4
Procedure, shortened: as §1

[10] = tested on: BPTF (PB); conditions: GST-tagged BPTF (PB = PHD + Bromodomain); histone peptide array; arrays performed twice, n of 4
Procedure, shortened: as §1

[11] = tested on: KDM4C (TTP); conditions: GST-tagged KDM4C (TTP = Tandem Tudor domain + PHD); histone peptide array; arrays performed twice, n of 4
Procedure, shortened: as §1

[12] = tested on: AIRE (PP); conditions: GST-tagged AIRE (PP); histone peptide array; arrays performed twice, n of 4
Procedure, shortened: as §1

[13] = tested on: ING2; conditions: GST-tagged ING2; histone peptide array; arrays performed twice, n of 4
Procedure, shortened: as §1

[14] = tested on: PHF23; conditions: GST-tagged PHF23; histone peptide array; arrays performed twice, n of 4
Procedure, shortened: as §1

[15] = tested on: CHD5 (PCC); conditions: GST-tagged CHD5 (PCC = PHD + Dual Chromodomain); histone peptide array; arrays performed twice, n of 4
Procedure, shortened: as §1

[16] = tested on: MLL5; conditions: GST-tagged MLL5; histone peptide array; arrays performed twice, n of 4
Procedure, shortened: as §1

[17] = tested on: ING1; conditions: GST-tagged ING1; histone peptide array; arrays performed twice, n of 4
Procedure, shortened: as §1

[18] = tested on: KDM5A (1); conditions: GST-tagged KDM5A (1); histone peptide array; arrays performed twice, n of 4
Procedure, shortened: as §1

[19] = tested on: PHRF1 (RP); conditions: GST-tagged PHRF1 (RP); histone peptide array; arrays performed twice, n of 4
Procedure, shortened: as §1

[20] = tested on: TRIM66 (PB); conditions: GST-tagged TRIM66 (PB = PHD + Bromodomain); histone peptide array; arrays performed twice, n of 4
Procedure, shortened: as §1

[21] = tested on: CHD5 (PPCC); conditions: GST-tagged CHD5 (PPCC = Dual PHD + Dual Chromodomain); histone peptide array; arrays performed twice, n of 4
Procedure, shortened: as §1

[22] = tested on: RAG2; conditions: GST-tagged RAG2; histone peptide array; arrays performed twice, n of 4
Procedure, shortened: as §1

[23] = tested on: PHF13; conditions: GST-tagged PHF13; histone peptide array; arrays performed twice, n of 4
Procedure, shortened: as §1

[24] = tested on: CHD4 (PPCC); conditions: GST-tagged CHD4 (PPCC = Dual PHD + Dual Chromodomain); histone peptide array; arrays performed twice, n of 4
Procedure, shortened: as §1

[25] = tested on: PHF2; conditions: GST-tagged PHF2; histone peptide array; arrays performed twice, n of 4
Procedure, shortened: as §1

[26] = tested on: BAZ2B; conditions: GST-tagged BAZ2B; histone peptide array; arrays performed twice, n of 4
Procedure, shortened: as §1

[27] = tested on: KDM5B (1); conditions: GST-tagged KDM5B (1); histone peptide array; arrays performed twice, n of 4
Procedure, shortened: as §1

[28] = tested on: ING5; conditions: GST-tagged ING5; histone peptide array; arrays performed twice, n of 4
Procedure, shortened: as §1

[29] = tested on: PHF21A; conditions: GST-tagged PHF21A; histone peptide array; arrays performed twice, n of 4
Procedure, shortened: as §1

[30] = tested on: PHF8; conditions: GST-tagged PHF8; histone peptide array; arrays performed twice, n of 4
Procedure, shortened: as §1

[31] = tested on: KDM7A; conditions: GST-tagged KDM7A; histone peptide array; arrays performed twice, n of 4
Procedure, shortened: as §1

Substance | Array Heatmap signal, KDM5B (3) [1] | Array Heatmap signal, ING3 [2] | Array Heatmap signal, TAF3 [3] | Array Heatmap signal, KDM5A (3) [4] | Array Heatmap signal, DIDO1 [5] | Array Heatmap signal, ING4 [6] | Array Heatmap signal, DPF2 (PPC2W2) [7] | Array Heatmap signal, MORC3 (CW) [8] | Array Heatmap signal, SP140L [9] | Array Heatmap signal, BPTF (PB) [10] | Array Heatmap signal, KDM4C (TTP) [11] | Array Heatmap signal, AIRE (PP) [12] | Array Heatmap signal, ING2 [13] | Array Heatmap signal, PHF23 [14] | Array Heatmap signal, CHD5 (PCC) [15] | Array Heatmap signal, MLL5 [16] | Array Heatmap signal, ING1 [17] | Array Heatmap signal, KDM5A (1) [18] | Array Heatmap signal, PHRF1 (RP) [19] | Array Heatmap signal, TRIM66 (PB) [20] | also measured
H3R2me1 + K4me2: H3 1-20 | 0.6308 | 0.5383 | 0.4954 | 0.6755 | 0.7623 | 0.4775 | 0.7133 | 0.6321 | 0.3804 | 0.3634 | 0.4903 | 0.3934 | 0.678 | 0.6929 | 0.8739 | 0.577 | 0.6158 | 0.4465 | 0.5537 | 0.6589 | Array Heatmap signal, CHD5 (PPCC) [21]: 0.5419; Array Heatmap signal, RAG2 [22]: 0.5456; Array Heatmap signal, PHF13 [23]: 0.6859; Array Heatmap signal, CHD4 (PPCC) [24]: 0.6115; Array Heatmap signal, PHF2 [25]: 0.6699; Array Heatmap signal, BAZ2B [26]: 0.4449; Array Heatmap signal, KDM5B (1) [27]: 0.6024; Array Heatmap signal, ING5 [28]: 0.3522; Array Heatmap signal, PHF21A [29]: 0.4826; Array Heatmap signal, PHF8 [30]: 0.4684; Array Heatmap signal, KDM7A [31]: 0.344
H3R2me1 + K4me3 + K9ac + K14ac + K18ac: H3 1-20 | 0.6033 | 0.5459 | 0.3972 | 1 | 0.9369 | 0.4735 | 0.7016 | 0.7963 | 0.3363 | 0.497 | 0.6022 | 0.4342 | 0.7542 | 0.7743 | 0.7637 | 0.7798 | 0.6321 | 0.4772 | 0.4594 | 0.5379 | Array Heatmap signal, CHD5 (PPCC) [21]: 0.5534; Array Heatmap signal, RAG2 [22]: 0.5848; Array Heatmap signal, PHF13 [23]: 0.6575; Array Heatmap signal, CHD4 (PPCC) [24]: 0.5338; Array Heatmap signal, PHF2 [25]: 0.7659; Array Heatmap signal, BAZ2B [26]: 0.5242; Array Heatmap signal, KDM5B (1) [27]: 0.6999; Array Heatmap signal, ING5 [28]: 0.3861; Array Heatmap signal, PHF21A [29]: 0.4576; Array Heatmap signal, PHF8 [30]: 0.711; Array Heatmap signal, KDM7A [31]: 0.4977
